In patent US10149887B2, “Peptides and peptidomimetics in combination with t cell activating and/or checkpoint inhibiting agents for cancer treatment” (CanBas Co., Ltd., priority 2015, dated 2018):
Where two headings read alike, the source gives them in different places. Square brackets hold non-standard residues; d marks the D form. Peptide text beside a SMILES is read from it. dPhe(F5) = N[C@H](Cc1c(F)c(F)c(F)c(F)c1F)C(=O)O; dBpa = N[C@H](Cc1ccc(C(=O)c2ccccc2)cc1)C(=O)O; dCha = N[C@H](CC1CCCCC1)C(=O)O

Key:
[1] = system: HUVEC; assay: G2 checkpoint abrogation by CBP501 combined with cis-platin, flow cytometry; format: cell-based, human; settings: umbilical vein endothelium, cis-platin 3 μg/ml 3 hr, then 45 hr
Experimental: The medium was aspirated, fresh medium without these compounds was added and the cells were incubated for an additional 45 hr. The cells including floating cells were harvested using trypsin-EDTA solution, incubated with Krishan's solution and analyzed for DNA content by flow cytometry as previously described.

[2] = system: HUVEC; assay: Growth of normal human umbilical endothelial cells (HUVEC); format: cell-based; settings: peptide by itself
Experimental: Similar studies were performed using normal human umbilical endothelial cells (HUVEC).

[3] = system: phospho-eIF2-alpha; assay: CDDP-induced phosphorylation of eIF2-alpha in CT26WT cells (immunoblotting); format: cell-based, murine; settings: 10-20 uM CDDP with 0.5 μM CBP501, 45 min
Experimental: A day later, cells were collected and analyzed by immunoblotting using specific antibody against phospho-eIF2-alpha (n=8) (FIG. 22A) and the amount of relative Phospho-eIF2-alpha was quantitated (FIG. 22B). Samples were compared by student's t-test. *P<0.05 **P<0.01, compared with untreated cells, and ^†P<0.05, ^††P<0.01, compared with the corresponding CDDP alone.
(§1) After changing with fresh drug-free medium, cells were incubated for 24, 48, or 72 hours for Immunoblotting analysis of phospho-eIF2-alpha, for calreticulin analysis by FACS, or for HMGB1 ELISA.
Cells were lysed by incubating with a buffer [NaCl (100 mM), Tris-HCl (50 mM, pH 8.0), DTT (1 mM), NP40 (0.5% w/v) containing PhosSTOP Phosphatase Inhibitor Cocktail and Complete Proteinase Inhibitor Cocktail Tablets (Roche Life Science) each diluted to the manufacturer's specified concentrations] at 4° C. for 30 minutes and centrifuged (15 000 rpm, 4° C., 20 minutes). The supernatant (whole-cell lysate) was electrophoresed (SDS-PAGE), and transferred from the gel onto a polyvinylidene difluoride (PVDF) membrane (Millipore) by electroblotting. […] Images were recorded with a Luminescent Image Analyzer LAS-4000 system (Fujifilm) and quantified the band intensity with Multi Gauge software (Fujifilm).

[4] = system: HMGB1; assay: HMGB1 secretion from CT26WT cells (ELISA); format: cell-based, murine; settings: 20 μM CDDP with 0.5 μM CBP501, 45 min
Experimental: Secreted HMGB1 into the medium was collected at 24, 48 and 72 hours after treatment (n=3). Quantification of the secreted HMGB1 was conducted by HMGB1 ELISA kit II. Samples were compared by student's t-test. *P<0.05 **P<0.01, compared with untreated control cells, and ^†P<0.05, ^††P<0.01, compared with the corresponding CDDP alone.
as §1
The secreted HMGB1 to the medium was quantificated by HMGB1 ELISA kit II (SINO-TEST CORPORATION, kanagawa, Japan) according to manufacturer's instructions.

[5] = Solubility in water
[6] = system: MIAPaCa2; settings: three hours exposure
Experimental: The medium was changed and incubated an additional 24, 48 or 72 hour. Following incubation, 20 μl of alamarBlue 90% reagent was added to each well for another 6 hours for detection of cell viability by fluorescent intensity. Fluorescent intensity was measured using a Spectrafluor Plus plate reader with exitation 530 nm and emission 590 nm. The IC50 was calculated (Table 6).

[7] = system: Jurkat cells; assay: Side effect of peptide used alone: Jurkat cell cycle disturbance (flow cytometry); format: cell-based; settings: dose that produced Jurkat cell cycle disturbance, peptide alone
Method in brief: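 Cell-cycle profiles were obtained by flow cytometry after propidium iodide staining in Krishan's solution for 1 hr at 4 °C. The value is the peptide dose given alone that disturbed the cell cycle, seen as significant SubG1 (dead) cells or unusually variable DNA content.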

[8] = system: thrombin/antithrombin complex; assay: Thrombin/antithrombin complex in plasma of LPS treated mice (ELISA); format: in vivo, mouse; settings: C57BL/6 mice, CBP501 7.5 mg/kg, plasma 3 hours after
Excerpt: The data were obtained in each condition out of four animals.

[9] = system: MIAPaCa2 human pancreatic carcinoma cells; assay: MIAPaCa2 subcutaneous xenograft in scid mice; format: in vivo, mouse
Experimental: Day0 indicates treatment initiation. Mean tumor sizes with standard deviation for each treatment group are indicated on the Y-axis and the number of days following treatment initiation are indicated on the X-axis.
To study in vivo efficacy of the compounds, MIAPaCa2 human pancreatic carcinoma cells were implanted subcutaneously in scid mice. The treatment was initiated when the size of the primary tumor became 0.1 cm3 (Day0) or larger, e.g., 7 or 8 mm in diameter. CDDP (3 mg/kg) and CBP 501 (10 or 40 mg/kg) were intra-peritoneally administered alone or in combination. Tumor sizes were measured using calipers three times a week, and volumes were calculated using the formula: weight (mg)=[width (mm)2×length (mm)]/2. Mean tumor sizes for each treatment group are plotted (n=4) against the days after the start of treatment (FIG. 10).

[10] = system: CBP501-sensitive human cancer cell lines; assay: Intracellular accumulation of CDDP; format: cell-based

For N=C(N)NCCC[C@@H](NC(=O)[C@@H](CCCNC(=N)N)NC(=O)[C@@H](CCC(N)=O)NC(=O)[C@@H](CCCNC(=N)N)NC(=O)[C@@H](CCCNC(=N)N)NC(=O)[C@@H](CCCNC(=N)N)NC(=O)[C@@H](CC1CCCCC1)NC(=O)[C@@H](Cc1c(F)c(F)c(F)c(F)c1F)NC(=O)[C@@H](CO)NC(=O)[C@@H](Cc1c[nH]c2ccccc12)NC(=O)[C@@H](CO)NC(=O)[C@H](N)Cc1ccc(C(=O)c2ccccc2)cc1)C(=O)O [CBP501, (d-Bpa)(d-Ser)(d-Trp)(d-Ser)(d-Phe-2,3,4,5,6-F)(d-Cha)(d-Arg)(d-Arg)(d-Arg)(d-Gln)(d-Arg)(d-Arg)] (H-[dBpa][dS][dW][dS][dPhe(F5)][dCha][dR][dR][dR][dQ][dR][dR]-OH; N-terminus and C-terminus assumed), the “G2 checkpoint abrogating dose of CBP501, cis-platin” value [1] was over 50 µM, the “Growth of normal cells (HUVEC)” value [2] was “does not affect the growth of HUVEC cells” and the “CDDP-induced phosphorylation of eIF2-alpha” value [3] was “augmented”. For the same compound, the “HMGB1 release, CDDP combined with CBP501 vs CDDP alone” value [4] was “about 2 times”, the Solubility in water [5] was “soluble in water” and the IC50 ([6]; read-out: IC50 24 hr, CBP501 with 10 uM cisplatin, with 10 uM cisplatin, additional 24 hour) was 0.6 µM. It also gave an IC50 ([6]; read-out: IC50 24 hr, additional 24 hour) of 6 µM, an IC50 ([6]; read-out: IC50 48 hr, CBP501 with 10 uM cisplatin, with 10 uM cisplatin, additional 48 hour) of 1 µM and an IC50 ([6]; read-out: IC50 48 hr, additional 48 hour) of 10 µM. The IC50 ([6]; read-out: IC50 72 hr, CBP501 with 10 uM cisplatin, with 10 uM cisplatin, additional 72 hour) was 6 µM, the IC50 ([6]; read-out: IC50 72 hr, additional 72 hour) was 13 µM and the “Appearance of side effect when used alone” value [7] was over 50 µM. The “Thrombin/anti-thrombin complexes in vivo” value [8] was “increased thrombin/anti-thrombin complexes”, the “Tumor growth, CBP501 treatment alone” value ([9]; CBP501 10 or 40 mg/kg ip) was “suppresses the growth of human pancreatic cancer cell in vivo” and the “Anti-tumor activity of cisplatin in combination with CBP501” value ([9]; CDDP 3 mg/kg and CBP501 10 or 40 mg/kg ip) was “increased the anti-tumor activity of cisplatin”. The “Intracellular accumulation of CDDP, CDDP combined with CBP501 vs CDDP alone” value [10] was 1.5 to 3 times.
